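Tested at 5 concentrations; 48 h exposure; 96-well plates; endpoints linearly interpolated, else capped at highest concentration. TGI marks complete inhibition of growth.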
Legend:
Test in all cases: DTP human tumour cell line panel, 48 h
786-0 renal = tested on: 786-0 renal
A549 NSCLC = tested on: A549 NSCLC
ACHN renal = tested on: ACHN renal
BT-549 breast = tested on: BT-549 breast
CAKI-1 renal = tested on: CAKI-1 renal
CCRF-CEM leukemia = tested on: CCRF-CEM leukemia
COLO 205 colon = tested on: COLO 205 colon
DU-145 prostate = tested on: DU-145 prostate
EKVX NSCLC = tested on: EKVX NSCLC
HCC-2998 colon = tested on: HCC-2998 colon
HCT-116 colon = tested on: HCT-116 colon
HCT-15 colon = tested on: HCT-15 colon
HL-60(TB) leukemia = tested on: HL-60(TB) leukemia
HOP-62 NSCLC = tested on: HOP-62 NSCLC
HOP-92 NSCLC = tested on: HOP-92 NSCLC
HS 578T breast = tested on: HS 578T breast
HT29 colon = tested on: HT29 colon
IGROV1 ovarian = tested on: IGROV1 ovarian
K-562 leukemia = tested on: K-562 leukemia
KM12 colon = tested on: KM12 colon
LOX IMVI melanoma = tested on: LOX IMVI melanoma
M14 melanoma = tested on: M14 melanoma
MCF7 breast = tested on: MCF7 breast
MDA-MB-231 breast = tested on: MDA-MB-231 breast
MDA-MB-435 = tested on: MDA-MB-435
MDA-N = tested on: MDA-N
MOLT-4 leukemia = tested on: MOLT-4 leukemia
NCI-H226 lung = tested on: NCI-H226 lung
NCI-H23 lung = tested on: NCI-H23 lung
NCI-H460 lung = tested on: NCI-H460 lung
NCI-H522 lung = tested on: NCI-H522 lung
NCI/ADR-RES ovarian = tested on: NCI/ADR-RES ovarian
OVCAR-3 ovarian = tested on: OVCAR-3 ovarian
OVCAR-4 ovarian = tested on: OVCAR-4 ovarian
OVCAR-5 ovarian = tested on: OVCAR-5 ovarian
OVCAR-8 ovarian = tested on: OVCAR-8 ovarian
PC-3 prostate = tested on: PC-3 prostate
RPMI-8226 leukemia = tested on: RPMI-8226 leukemia
RXF 393 renal = tested on: RXF 393 renal
SF-268 CNS = tested on: SF-268 CNS
SF-295 CNS = tested on: SF-295 CNS
SF-539 CNS = tested on: SF-539 CNS
SK-MEL-2 melanoma = tested on: SK-MEL-2 melanoma
SK-MEL-28 melanoma = tested on: SK-MEL-28 melanoma
SK-MEL-5 melanoma = tested on: SK-MEL-5 melanoma
SK-OV-3 ovarian = tested on: SK-OV-3 ovarian
SN12C renal = tested on: SN12C renal
SNB-19 CNS = tested on: SNB-19 CNS
SNB-75 CNS = tested on: SNB-75 CNS
SR leukemia = tested on: SR leukemia
SW-620 colon = tested on: SW-620 colon
T-47D breast = tested on: T-47D breast
TK-10 renal = tested on: TK-10 renal
U251 CNS = tested on: U251 CNS
UACC-257 melanoma = tested on: UACC-257 melanoma
UACC-62 melanoma = tested on: UACC-62 melanoma
UO-31 renal = tested on: UO-31 renal
A498 renal = tested on: A498 renal
MALME-3M melanoma = tested on: MALME-3M melanoma

## COC(=O)C(CC(C)C)NC(=O)C(NC(=O)c1ccc(-c2ccc(Cl)cc2Cl)o1)C(C)C (stereo not given)
786-0 renal
  TGI: 35.1 µM
A549 NSCLC
  TGI: > 100 µM
ACHN renal
  TGI: 85.6 µM
BT-549 breast
  TGI: > 100 µM
CAKI-1 renal
  TGI: > 100 µM
CCRF-CEM leukemia
  TGI: 33.2 µM
COLO 205 colon
  TGI: 52.2 µM
DU-145 prostate
  TGI: 74.4 µM
EKVX NSCLC
  TGI: 62.6 µM
HCC-2998 colon
  TGI: 31.7 µM
HCT-116 colon
  TGI: 29.2 µM
HCT-15 colon
  TGI: 75.6 µM
HL-60(TB) leukemia
  TGI: 30.8 µM
HOP-62 NSCLC
  TGI: 65.4 µM
HOP-92 NSCLC
  TGI: 45.9 µM
HS 578T breast
  TGI: 60.8 µM
HT29 colon
  TGI: 42.6 µM
IGROV1 ovarian
  TGI: > 100 µM
K-562 leukemia
  TGI: 53.1 µM
KM12 colon
  TGI: 58.9 µM
LOX IMVI melanoma
  TGI: 30.9 µM
M14 melanoma
  TGI: 65.8 µM
MCF7 breast
  TGI: 44.7 µM
MDA-MB-231 breast
  TGI: 35.3 µM
MDA-MB-435
  TGI: > 100 µM
MDA-N
  TGI: > 100 µM
MOLT-4 leukemia
  TGI: 44.7 µM
NCI-H226 lung
  TGI: > 100 µM
NCI-H23 lung
  TGI: > 100 µM
NCI-H460 lung
  TGI: 34.2 µM
NCI-H522 lung
  TGI: 55.5 µM
NCI/ADR-RES ovarian
  TGI: > 100 µM
OVCAR-3 ovarian
  TGI: 42.2 µM
OVCAR-4 ovarian
  TGI: > 100 µM
OVCAR-5 ovarian
  TGI: > 100 µM
OVCAR-8 ovarian
  TGI: > 100 µM
PC-3 prostate
  TGI: > 100 µM
RPMI-8226 leukemia
  TGI: 40.3 µM
RXF 393 renal
  TGI: 47.2 µM
SF-268 CNS
  TGI: 56.6 µM
SF-295 CNS
  TGI: 52.6 µM
SF-539 CNS
  TGI: > 100 µM
SK-MEL-2 melanoma
  TGI: 63.2 µM
SK-MEL-28 melanoma
  TGI: > 100 µM
SK-MEL-5 melanoma
  TGI: 49.9 µM
SK-OV-3 ovarian
  TGI: > 100 µM
SN12C renal
  TGI: 39.2 µM
SNB-19 CNS
  TGI: > 100 µM
SNB-75 CNS
  TGI: > 100 µM
SR leukemia
  TGI: > 100 µM
SW-620 colon
  TGI: > 100 µM
T-47D breast
  TGI: > 100 µM
TK-10 renal
  TGI: 84.5 µM
U251 CNS
  TGI: 46 µM
UACC-257 melanoma
  TGI: 64.9 µM
UACC-62 melanoma
  TGI: 44.8 µM
UO-31 renal
  TGI: 61.2 µM

## Oc1ccc(Br)cc1C=Nc1cccc(C(F)(F)F)c1
786-0 renal
  TGI: > 100 µM
A498 renal
  TGI: > 100 µM
A549 NSCLC
  TGI: > 100 µM
ACHN renal
  TGI: > 100 µM
BT-549 breast
  TGI: 98.3 µM
CAKI-1 renal
  TGI: > 100 µM
CCRF-CEM leukemia
  TGI: 28.5 µM
COLO 205 colon
  TGI: > 100 µM
DU-145 prostate
  TGI: > 100 µM
EKVX NSCLC
  TGI: > 100 µM
HCC-2998 colon
  TGI: 60.1 µM
HCT-116 colon
  TGI: > 100 µM
HCT-15 colon
  TGI: > 100 µM
HL-60(TB) leukemia
  TGI: 34.4 µM
HOP-62 NSCLC
  TGI: > 100 µM
HOP-92 NSCLC
  TGI: > 100 µM
HS 578T breast
  TGI: 83.3 µM
HT29 colon
  TGI: > 100 µM
IGROV1 ovarian
  TGI: > 100 µM
K-562 leukemia
  TGI: > 100 µM
KM12 colon
  TGI: > 100 µM
LOX IMVI melanoma
  TGI: > 100 µM
M14 melanoma
  TGI: 48.6 µM
MALME-3M melanoma
  TGI: 75.5 µM
MCF7 breast
  TGI: > 100 µM
MDA-MB-231 breast
  TGI: > 100 µM
MDA-MB-435
  TGI: > 100 µM
MDA-N
  TGI: > 100 µM
MOLT-4 leukemia
  TGI: 83.8 µM
NCI-H226 lung
  TGI: 90.6 µM
NCI-H23 lung
  TGI: > 100 µM
NCI-H460 lung
  TGI: > 100 µM
NCI-H522 lung
  TGI: > 100 µM
NCI/ADR-RES ovarian
  TGI: > 100 µM
OVCAR-3 ovarian
  TGI: > 100 µM
OVCAR-4 ovarian
  TGI: > 100 µM
OVCAR-5 ovarian
  TGI: > 100 µM
OVCAR-8 ovarian
  TGI: > 100 µM
PC-3 prostate
  TGI: 33.3 µM
RPMI-8226 leukemia
  TGI: > 100 µM
RXF 393 renal
  TGI: > 100 µM
SF-268 CNS
  TGI: > 100 µM
SF-295 CNS
  TGI: > 100 µM
SF-539 CNS
  TGI: 99.1 µM
SK-MEL-2 melanoma
  TGI: 49 µM
SK-MEL-28 melanoma
  TGI: > 100 µM
SK-MEL-5 melanoma
  TGI: > 100 µM
SK-OV-3 ovarian
  TGI: > 100 µM
SN12C renal
  TGI: > 100 µM
SNB-19 CNS
  TGI: > 100 µM
SNB-75 CNS
  TGI: > 100 µM
SW-620 colon
  TGI: > 100 µM
T-47D breast
  TGI: > 100 µM
TK-10 renal
  TGI: > 100 µM
U251 CNS
  TGI: 45.1 µM
UACC-257 melanoma
  TGI: > 100 µM
UACC-62 melanoma
  TGI: 71.1 µM
UO-31 renal
  TGI: > 100 µM
